ChEMBL document CHEMBL1201862, “PubChem BioAssay data set” (2004)
Several values for one entry are separate records, joined by “and”; a condition that tells them apart may be missing. Identical values can stand only once. Activity calls are given as the source filed them.

Legend:
Troponin, cardiac muscle = Troponin, cardiac muscle (Homo sapiens, UniProt P19429+P45379+P63316); assay: Fluorescence-based biochemical high throughput dose response assay for activators of the calcium sensitivity of cardiac Regulated Thin Filaments (RTF). [Related pubchem assays (depositor defined):AID493008, AID493018, AID504382, AID504383]; assay type: protein-complex assay
X-box-binding protein 1 = target: T1, X-box-binding protein 1 (Homo sapiens, UniProt P17861); assay type: functional, Cricetulus griseus;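 also: confirmatory dose-response counter-screen serving a CHOP assay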
T1 sequence (P17861 whole entry): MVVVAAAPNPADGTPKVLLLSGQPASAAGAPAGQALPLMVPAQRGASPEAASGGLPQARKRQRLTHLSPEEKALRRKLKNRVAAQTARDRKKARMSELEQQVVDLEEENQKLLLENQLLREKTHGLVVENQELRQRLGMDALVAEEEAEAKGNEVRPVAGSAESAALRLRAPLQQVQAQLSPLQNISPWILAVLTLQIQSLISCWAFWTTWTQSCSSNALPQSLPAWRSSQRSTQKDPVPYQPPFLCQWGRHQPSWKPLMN

Melanocortin receptor 4 = Melanocortin receptor 4 (Homo sapiens, UniProt P32245); assay type: functional, cell-based;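 also: Cell-based assay with luminescence read-out, confirmatory dose-response testing for agonist activity of biased ligands at MC4R; human U2OS cells with tagged receptor and beta-arrestin; potency of agonists that increase receptor coupling to beta-arrestin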
Coagulation factor XII = target: T2, Coagulation factor XII (Homo sapiens, UniProt P00748); assay type: functional;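 also: activated factor XIIa alpha cleaving a fluorogenic AMC peptide substrate; inhibitor potency from loss of enzyme activity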
T2 sequence (P00748 whole entry): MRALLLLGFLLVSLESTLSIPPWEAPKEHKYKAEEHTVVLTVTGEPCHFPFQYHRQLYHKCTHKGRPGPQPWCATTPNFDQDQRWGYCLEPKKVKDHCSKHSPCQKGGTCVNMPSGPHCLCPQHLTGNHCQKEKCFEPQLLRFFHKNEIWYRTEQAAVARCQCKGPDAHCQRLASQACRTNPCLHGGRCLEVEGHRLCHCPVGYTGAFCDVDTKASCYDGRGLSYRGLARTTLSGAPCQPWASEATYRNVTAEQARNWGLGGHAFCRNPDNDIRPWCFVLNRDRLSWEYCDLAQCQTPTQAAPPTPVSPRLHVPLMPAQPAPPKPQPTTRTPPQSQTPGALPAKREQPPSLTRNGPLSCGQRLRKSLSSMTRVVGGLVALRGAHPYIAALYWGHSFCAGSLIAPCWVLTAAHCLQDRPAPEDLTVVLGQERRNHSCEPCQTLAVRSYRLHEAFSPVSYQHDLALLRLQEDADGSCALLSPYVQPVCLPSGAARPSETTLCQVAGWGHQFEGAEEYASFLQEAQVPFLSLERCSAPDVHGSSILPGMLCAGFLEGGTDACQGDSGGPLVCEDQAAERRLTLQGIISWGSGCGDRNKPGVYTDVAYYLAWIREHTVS

Leucine aminopeptidase = target: T3, Leucine aminopeptidase (Plasmodium falciparum 3D7, UniProt Q8IL11); assay: P. falciparum M17LAP inhibitors, primary screen, biochemical, fluorogenic H-Leu-NHMec substrate, 1536-well (AID 1619); assay type: functional
T3 sequence (Q8IL11 whole entry): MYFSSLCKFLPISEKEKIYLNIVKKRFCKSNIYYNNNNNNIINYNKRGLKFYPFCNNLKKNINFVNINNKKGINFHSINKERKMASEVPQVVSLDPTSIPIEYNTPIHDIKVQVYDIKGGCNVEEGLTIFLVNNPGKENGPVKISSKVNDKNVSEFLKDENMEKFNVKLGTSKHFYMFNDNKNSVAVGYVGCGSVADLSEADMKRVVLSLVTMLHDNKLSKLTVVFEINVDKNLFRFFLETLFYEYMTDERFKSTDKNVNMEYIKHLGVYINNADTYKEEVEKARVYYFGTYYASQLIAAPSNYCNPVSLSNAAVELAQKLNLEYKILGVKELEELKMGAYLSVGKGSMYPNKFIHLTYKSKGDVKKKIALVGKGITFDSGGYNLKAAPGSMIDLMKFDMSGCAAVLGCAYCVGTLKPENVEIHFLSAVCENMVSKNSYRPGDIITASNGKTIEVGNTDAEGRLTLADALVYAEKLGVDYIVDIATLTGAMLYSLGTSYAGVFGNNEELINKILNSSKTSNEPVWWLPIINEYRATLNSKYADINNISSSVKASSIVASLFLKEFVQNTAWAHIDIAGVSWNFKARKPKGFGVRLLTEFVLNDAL

[1] = target: DNA dC->dU-editing enzyme APOBEC-3G (Homo sapiens, UniProt Q9HC16); assay: Dose Response confirmation of small molecule APOBEC3G DNA Deaminase Inhibitors via a fluorescence-based single-stranded DNA deaminase assay. [Related pubchem assays (depositor defined):AID493012, AID493028]; assay type: functional
H9c2 = assay: cells; assay type: functional, cell-based; conditions: Rattus norvegicus, H9c2, Myocardium
[2] = microbe, parasite or virus in culture; assay type: functional; conditions: Mycobacterium tuberculosis
[3] = target: T4, Short transient receptor potential channel 4 (Mus musculus, UniProt Q9QUQ5); assay: mouse TRPC4 channel activators, dose response, cell-based, HEK293 TRPC4/mu-opioid, Fluo-4 calcium (AID 434937); assay type: functional
T4 sequence (Q9QUQ5 whole entry): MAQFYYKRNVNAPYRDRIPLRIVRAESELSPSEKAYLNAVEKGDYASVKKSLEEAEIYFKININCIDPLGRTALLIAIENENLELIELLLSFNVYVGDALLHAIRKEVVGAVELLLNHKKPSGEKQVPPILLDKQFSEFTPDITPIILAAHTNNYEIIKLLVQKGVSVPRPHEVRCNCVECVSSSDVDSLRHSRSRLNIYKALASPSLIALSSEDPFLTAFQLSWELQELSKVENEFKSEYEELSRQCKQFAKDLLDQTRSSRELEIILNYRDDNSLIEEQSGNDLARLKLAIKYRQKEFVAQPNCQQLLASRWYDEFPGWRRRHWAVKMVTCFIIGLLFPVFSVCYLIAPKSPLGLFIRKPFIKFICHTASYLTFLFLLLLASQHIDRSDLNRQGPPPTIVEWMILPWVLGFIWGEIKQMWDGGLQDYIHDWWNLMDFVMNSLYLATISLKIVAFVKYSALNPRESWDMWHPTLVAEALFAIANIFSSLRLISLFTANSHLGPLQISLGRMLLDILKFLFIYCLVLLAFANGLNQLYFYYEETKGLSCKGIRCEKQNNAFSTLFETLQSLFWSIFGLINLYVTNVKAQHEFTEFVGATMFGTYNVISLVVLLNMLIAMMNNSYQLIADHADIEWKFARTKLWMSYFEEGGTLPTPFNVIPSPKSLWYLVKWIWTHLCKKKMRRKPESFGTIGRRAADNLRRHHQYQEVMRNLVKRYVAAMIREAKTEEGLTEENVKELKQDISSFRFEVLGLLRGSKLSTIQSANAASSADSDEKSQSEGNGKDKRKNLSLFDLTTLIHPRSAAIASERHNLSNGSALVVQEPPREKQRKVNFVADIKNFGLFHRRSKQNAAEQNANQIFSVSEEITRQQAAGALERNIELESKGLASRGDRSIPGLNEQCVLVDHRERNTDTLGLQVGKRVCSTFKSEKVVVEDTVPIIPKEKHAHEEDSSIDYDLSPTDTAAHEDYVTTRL

Cytochrome P450 2C19 = Cytochrome P450 2C19 (Homo sapiens, UniProt P33261); assay: Cytochrome panel assay with activity outcomes. Panel member name: p450-cyp2c19 Compounds with AC50 equal or less than 10 uM are considered active; assay type: functional; conditions: read-out: AC50
[4] = target: T5, Replicative DNA helicase DnaB (Mycobacterium tuberculosis, UniProt P9WMR3); assay: DnaB intein splicing inhibitors, dose response, biochemical, cell-free fluorescence (AID 449749); assay type: functional
T5 sequence (P9WMR3 whole entry): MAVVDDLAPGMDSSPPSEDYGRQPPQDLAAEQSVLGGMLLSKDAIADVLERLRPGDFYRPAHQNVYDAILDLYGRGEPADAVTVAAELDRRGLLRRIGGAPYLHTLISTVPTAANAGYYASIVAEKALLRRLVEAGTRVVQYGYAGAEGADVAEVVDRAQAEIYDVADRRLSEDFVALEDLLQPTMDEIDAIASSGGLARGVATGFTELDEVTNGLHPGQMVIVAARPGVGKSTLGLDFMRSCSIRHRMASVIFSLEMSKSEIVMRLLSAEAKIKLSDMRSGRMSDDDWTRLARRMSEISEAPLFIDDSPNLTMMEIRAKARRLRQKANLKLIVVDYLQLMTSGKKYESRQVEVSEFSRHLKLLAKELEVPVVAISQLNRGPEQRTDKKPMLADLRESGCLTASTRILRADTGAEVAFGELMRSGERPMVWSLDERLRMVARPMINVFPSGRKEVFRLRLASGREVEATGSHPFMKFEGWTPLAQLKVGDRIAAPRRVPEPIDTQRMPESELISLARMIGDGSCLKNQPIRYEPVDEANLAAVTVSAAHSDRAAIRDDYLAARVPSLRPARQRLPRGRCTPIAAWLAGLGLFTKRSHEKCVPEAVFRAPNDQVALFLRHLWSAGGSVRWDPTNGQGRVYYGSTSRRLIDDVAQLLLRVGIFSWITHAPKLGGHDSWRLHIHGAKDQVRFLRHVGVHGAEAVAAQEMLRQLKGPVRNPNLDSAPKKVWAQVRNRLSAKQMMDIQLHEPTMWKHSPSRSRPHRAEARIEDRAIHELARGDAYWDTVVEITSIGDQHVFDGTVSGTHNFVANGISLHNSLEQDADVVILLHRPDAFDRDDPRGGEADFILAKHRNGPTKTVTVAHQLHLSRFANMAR

Protein RecA = target: T6, Protein RecA (Mycobacterium tuberculosis, UniProt P9WHJ3); assay: Fluorescence Cell-Free Homogeneous Dose Retest to Identify Inhibitors of RecA-Intein Splicing Activity. [Related pubchem assays (depositor defined):AID2097, AID2223, AID489010, AID492950]; assay type: functional
T6 sequence (P9WHJ3 whole entry): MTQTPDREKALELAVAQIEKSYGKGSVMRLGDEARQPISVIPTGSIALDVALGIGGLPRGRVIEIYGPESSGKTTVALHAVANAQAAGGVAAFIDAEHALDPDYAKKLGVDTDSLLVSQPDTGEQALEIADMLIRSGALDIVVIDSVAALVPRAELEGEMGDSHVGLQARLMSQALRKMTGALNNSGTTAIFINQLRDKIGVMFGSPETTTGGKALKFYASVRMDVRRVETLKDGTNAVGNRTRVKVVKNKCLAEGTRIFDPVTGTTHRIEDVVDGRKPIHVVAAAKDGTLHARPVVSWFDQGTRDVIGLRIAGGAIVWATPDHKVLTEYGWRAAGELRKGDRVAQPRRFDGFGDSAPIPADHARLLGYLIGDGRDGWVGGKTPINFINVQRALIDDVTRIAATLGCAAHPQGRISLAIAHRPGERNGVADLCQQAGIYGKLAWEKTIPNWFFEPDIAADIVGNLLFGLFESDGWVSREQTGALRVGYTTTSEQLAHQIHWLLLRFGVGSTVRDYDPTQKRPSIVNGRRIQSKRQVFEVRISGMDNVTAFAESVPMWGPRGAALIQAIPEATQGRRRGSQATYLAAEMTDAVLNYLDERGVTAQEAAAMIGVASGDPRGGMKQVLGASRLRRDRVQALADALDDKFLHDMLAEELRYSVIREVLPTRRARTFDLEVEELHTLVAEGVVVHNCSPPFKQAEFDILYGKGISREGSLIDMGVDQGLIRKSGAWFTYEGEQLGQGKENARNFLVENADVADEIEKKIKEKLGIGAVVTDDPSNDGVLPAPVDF

Cytochrome P450 1A2 = target: T7, Cytochrome P450 1A2 (Homo sapiens, UniProt P05177);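 also: PubChem cytochrome P450 panel assay, CYP1A2 panel member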
T7 sequence (P05177 whole entry): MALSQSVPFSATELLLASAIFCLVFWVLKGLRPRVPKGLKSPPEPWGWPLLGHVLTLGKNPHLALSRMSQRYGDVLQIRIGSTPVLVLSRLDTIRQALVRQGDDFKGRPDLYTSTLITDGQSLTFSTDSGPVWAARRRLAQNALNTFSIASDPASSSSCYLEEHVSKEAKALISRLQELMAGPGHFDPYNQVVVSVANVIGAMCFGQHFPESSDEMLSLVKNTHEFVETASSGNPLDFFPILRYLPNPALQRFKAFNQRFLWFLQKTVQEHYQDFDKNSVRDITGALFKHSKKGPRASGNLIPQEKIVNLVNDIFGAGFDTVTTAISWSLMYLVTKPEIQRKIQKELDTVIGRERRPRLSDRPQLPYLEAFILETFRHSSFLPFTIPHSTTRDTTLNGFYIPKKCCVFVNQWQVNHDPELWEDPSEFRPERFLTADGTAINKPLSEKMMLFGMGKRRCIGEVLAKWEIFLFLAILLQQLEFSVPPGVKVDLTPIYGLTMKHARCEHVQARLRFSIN

## Cc1ccc(S(=O)(=O)NCCCCCC(=O)Nc2ccccc2C)cc1
Troponin, cardiac muscle
  EC50: > 71.5 µM (inactive)

## Cc1ccc2nc(Nc3ccc4[nH]c(O)nc4c3)c(-n3nc(C)cc3C)nc2c1
X-box-binding protein 1
  Absolute IC50 (XBP1): 10 µM
Melanocortin receptor 4
  EC50: > 89.2 µM (inactive)

## Cc1nc2ccccc2n1C1CCN(Cc2nnnn2CCc2ccccc2)CC1
Coagulation factor XII
  IC50: > 50 µM (inactive)

## CCOc1ccccc1N1C(=O)CC(Sc2n[nH]c(-c3ccccc3)n2)C1=O (configuration not stated)
Leucine aminopeptidase
  IC50: 8.97 µM (active)
[1]
  IC50: 9.92 µM (active)

## COc1cccc(CC(NC(C)=O)C(=O)NC2CCN(c3nc(C)cc(C)c3C#N)CC2)c1OC (configuration not stated)
Troponin, cardiac muscle
  EC50: > 71.5 µM (inactive)

## COC(=O)C(C)Sc1nnc(Cc2cc(O)nc(O)n2)n1-c1ccc(Cl)cc1 (configuration not stated)
Coagulation factor XII
  IC50: > 50 µM (inactive)

## COc1ccc(/C=N/NC(=O)c2cc(OC)c(OC)c(OC)c2)cc1CN1CCc2cc(OC)c(OC)cc2C1C (configuration not stated)
Troponin, cardiac muscle
  EC50: > 71.5 µM (inactive)
H9c2
  IC50: 19.5 µM (active)

## O=C1NCN(c2ccccc2)C12CCN(CCCC(c1ccc(F)cc1)c1ccc(F)cc1)CC2
[2]
  CC50: 32.9 µM (active)
[3]
  EC50: 6.68 µM (active)
X-box-binding protein 1
  Absolute IC50 (XBP1): 10 µM
Cytochrome P450 2C19
  AC50: 7.94 µM (inconclusive) and 15.8 µM (inconclusive)
[4]
  AC50: 9.69 µM (active)
Protein RecA
  EC50: 20.2 µM (active)
Cytochrome P450 1A2
  AC50: 12.6 µM (inconclusive)
